Laboratory results as given in patent US7538194B2, “Genes encoding several poly (ADP-ribose) glycohydrolase (PARG) enzymes, the proteins and fragments thereof, and antibodies immunoreactive therewith” (University of Kentucky Research Foundation, priority 1998, dated 2009).

Target: T1, bPARG (construct C, 75-kDa carboxyl-terminal region) expressed in E. coli (Bos taurus, UniProt O02776)
T1 construct: construct C contained only the 75-kDa carboxyl-terminal region of the PARG, which predicted a fusion protein of approximately 79 kDa; made in house; host or cells: E. coli (pTrcHis expression plasmid; supernatant of crude cell extract)
Test: PARG activity, thin layer chromatography assay measuring release of [32P]ADP-ribose from [32P]ADP-ribose polymers
Format: biochemical, bovine
Conditions: 167 μm inhibitor; extract of E. coli strain containing construct C, 5 h after induction by IPTG (FIG. 6, bar 6 vs bar 5)
Method: For expression experiments, bacterial cultures were grown at 37° C. in 1% Bacto-tryptone, 0.5% yeast extract, and 0.5% NaCl to a density of approximately 0.6 A600/ml and were induced with 1 mM isopropyl-β-D-thiogalactoside (IPTG). Cells were-collected by centrifugation, and crude extracts were prepared by sonication (10 A600/ml) in 10 mM sodium phosphate buffer, pH 7.2, 150 mM NaCl, 0.5 mg/ml lysozyme, 0.1 mg/ml phenylmethylsulfonyl fluoride, 1 mM EDTA, 0.7 μg/ml pepstatin A, 0.5 μg/ml leupeptin, and 1 μg/ml aprotinin. Cell extracts were subjected to centrifugation, and the supernatant fraction was used for assay. PARG assay conditions were as described previously (52). Following incubations, portions of reaction mixture were analyzed by thin layer chromatography or subjected to anion exchange HPLC.
Using a thin layer chromatography assay that measures release of [^32P]ADP-ribose from [^32P]ADP-ribose polymers (53), PARG activity was detected in extracts from cells transformed by each of the constructs. […] Reaction mixtures contained approximately 15,000 cpm of [^32P]ADP-ribose polymers, and the cpm shown represent ADP-ribose released from the ADP-ribose polymers. […] No activity was detected in cells transformed with the empty vector, but activity was detectable without induction by IPTG, indicating a leaky lac promoter.

T1 sequence (O02776 322-977 limits assumed): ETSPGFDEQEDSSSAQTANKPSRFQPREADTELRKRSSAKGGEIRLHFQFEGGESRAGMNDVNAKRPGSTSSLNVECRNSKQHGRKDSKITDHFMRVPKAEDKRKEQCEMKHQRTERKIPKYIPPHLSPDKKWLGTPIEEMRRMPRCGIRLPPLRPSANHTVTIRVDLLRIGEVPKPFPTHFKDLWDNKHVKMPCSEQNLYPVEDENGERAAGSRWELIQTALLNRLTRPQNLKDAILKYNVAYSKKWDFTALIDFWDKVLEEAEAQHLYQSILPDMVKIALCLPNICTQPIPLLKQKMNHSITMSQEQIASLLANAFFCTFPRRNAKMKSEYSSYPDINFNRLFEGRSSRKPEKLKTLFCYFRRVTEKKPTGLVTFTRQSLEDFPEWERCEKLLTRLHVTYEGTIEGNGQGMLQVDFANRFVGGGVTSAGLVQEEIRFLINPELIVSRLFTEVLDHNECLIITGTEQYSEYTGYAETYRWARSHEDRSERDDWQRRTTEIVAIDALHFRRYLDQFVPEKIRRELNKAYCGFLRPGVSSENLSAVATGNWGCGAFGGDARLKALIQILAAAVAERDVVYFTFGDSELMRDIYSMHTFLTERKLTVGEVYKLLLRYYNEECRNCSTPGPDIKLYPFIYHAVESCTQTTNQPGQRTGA

Which “enzymatic activity (ADP-ribose released from ADP-ribose polymers)” value does the source give for `Nc1ncnc2c1ncn2[C@@H]1O[C@H](COP(=O)(O)OP(=O)(O)OC[C@H]2NC[C@H](O)[C@@H]2O)[C@@H](O)[C@H]1O` [ADP-hydroxymethylpyrrolidine diol] here?
Its value is “strongly inhibited”.
